From PMC6775132, “Systematic identification of metabolites controlling gene expression in E. coli” (Nature Communications, 2019)
Blank lines part the entries; values can stand above or below the molecule they belong to.

Experiments:
Assay in all cases: microscale thermophoresis, labelled His-tagged protein
Assay type in all cases: binding
Conditions in all cases: 50 mM NaH2PO4, 500 mM NaCl, pH 5.7, 21 °C; 50 nM protein
[1] = target: T1, SgrR (Escherichia coli, UniProt P33595)
T1 construct: labelled through His-tag (RED-tris-NTA)
T1 sequence (P33595 1-551): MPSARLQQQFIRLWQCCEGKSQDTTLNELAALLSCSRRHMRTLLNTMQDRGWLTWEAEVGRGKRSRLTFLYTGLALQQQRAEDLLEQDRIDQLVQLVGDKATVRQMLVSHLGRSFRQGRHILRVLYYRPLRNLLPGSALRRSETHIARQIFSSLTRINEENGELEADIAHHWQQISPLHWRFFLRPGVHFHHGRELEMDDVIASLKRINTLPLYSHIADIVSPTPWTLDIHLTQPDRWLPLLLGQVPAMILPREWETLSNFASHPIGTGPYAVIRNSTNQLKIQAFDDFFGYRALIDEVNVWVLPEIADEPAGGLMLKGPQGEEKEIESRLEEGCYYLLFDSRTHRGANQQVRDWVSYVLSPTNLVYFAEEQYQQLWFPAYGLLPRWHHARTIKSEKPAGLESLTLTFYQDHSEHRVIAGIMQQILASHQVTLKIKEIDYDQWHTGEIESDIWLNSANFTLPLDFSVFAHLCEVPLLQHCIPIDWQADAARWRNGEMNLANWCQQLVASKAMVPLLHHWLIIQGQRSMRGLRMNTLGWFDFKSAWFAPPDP

[2] = target: T2, ArgR (Escherichia coli, UniProt P0A6D0)
T2 construct: labelled through His-tag (RED-tris-NTA)
T2 sequence (P0A6D0 1-156): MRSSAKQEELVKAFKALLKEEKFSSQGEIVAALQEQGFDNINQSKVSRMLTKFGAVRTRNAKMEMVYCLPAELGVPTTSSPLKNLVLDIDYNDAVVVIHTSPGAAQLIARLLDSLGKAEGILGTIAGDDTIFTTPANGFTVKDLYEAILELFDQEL

[3] = target: T3, DhaR (Escherichia coli, UniProt P76016)
T3 construct: labelled through His-tag (RED-tris-NTA)
T3 sequence (P76016 1-639): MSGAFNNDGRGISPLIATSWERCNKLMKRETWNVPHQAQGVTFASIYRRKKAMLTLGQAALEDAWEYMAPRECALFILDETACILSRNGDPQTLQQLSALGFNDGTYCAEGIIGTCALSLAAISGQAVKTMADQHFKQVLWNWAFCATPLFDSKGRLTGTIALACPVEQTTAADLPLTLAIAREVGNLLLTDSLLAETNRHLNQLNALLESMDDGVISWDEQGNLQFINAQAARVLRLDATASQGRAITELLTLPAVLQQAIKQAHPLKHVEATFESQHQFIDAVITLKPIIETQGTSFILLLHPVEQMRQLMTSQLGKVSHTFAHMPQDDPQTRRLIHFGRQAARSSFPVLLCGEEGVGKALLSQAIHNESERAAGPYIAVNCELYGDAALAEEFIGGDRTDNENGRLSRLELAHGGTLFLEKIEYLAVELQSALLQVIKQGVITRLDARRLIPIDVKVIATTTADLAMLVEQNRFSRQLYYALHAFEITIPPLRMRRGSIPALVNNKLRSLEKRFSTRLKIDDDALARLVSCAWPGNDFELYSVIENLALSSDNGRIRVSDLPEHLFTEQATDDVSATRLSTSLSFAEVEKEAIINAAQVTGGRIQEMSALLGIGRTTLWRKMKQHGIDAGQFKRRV

[4] = target: T4, TrpR (Escherichia coli, UniProt P0A881)
T4 construct: labelled through His-tag (RED-tris-NTA)

[5] = target: T5, SoxR (Escherichia coli, UniProt P0ACS2)
T5 construct: labelled through His-tag (RED-tris-NTA)
T5 sequence (P0ACS2 1-154): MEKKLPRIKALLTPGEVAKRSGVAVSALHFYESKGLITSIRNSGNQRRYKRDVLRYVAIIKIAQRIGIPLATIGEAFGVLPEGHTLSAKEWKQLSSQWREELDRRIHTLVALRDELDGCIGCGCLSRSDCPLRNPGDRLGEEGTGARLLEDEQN

KD [1]: SgrR binds glutamate
SMILES: N[C@@H](CCC(=O)O)C(=O)O [glu, glutamate]

SMILES: N=C(N)NCCC[C@H](N)C(=O)O [arg, arginine]
KD [2]: also confirmed the known arginine–ArgR and tryptophan–TrpR interactions

SMILES: O=C(CO)COP(=O)(O)O [dhap, dihydroxyacetone phosphate]
KD [3]: DhaR binds the glycolysis intermediate dihydroxyacetone phosphate (DHAP)

SMILES: N[C@@H](Cc1c[nH]c2ccccc12)C(=O)O [trp, tryptophan]
KD [4]: also confirmed the known arginine–ArgR and tryptophan–TrpR interactions
KD [5]: In vitro MST assays validated that SoxR binds tryptophan
